Assays:
Type in all cases: physicochemical
[1] = Content during storage of the preparation of the present invention; details: storage at 40° C./4 months (equivalent to 25° C./2 years)
From the text: In the preparation of the present invention, the pH value of the aqueous preparation is most desirably 6 to 7, the antioxidant is a combination of ascorbic acid with sodium pyrosulfite, and the concentration of the antioxidant is 0.1 to 0.3 w/v %. However, in the case where the concentration of sodium pyrosulfite is not less than 0.2 w/v %, precipitants form in the aqueous preparation. The preparation of the present invention is desirably included in an inner container, e.g., a syringe in a double package form which comprises an inner container and an outer bag, where a deoxidant (oxygen absorber) is placed between the inner container and the outer bag. The preparation of the present invention can be used as a pharmaceutical. The content of calcium salt of 5-formyl-(6S)-tetrahydrofolic acid (i.e. calcium levofolinate) is 90% or more during storage at 40° C./4 months (this condition is equivalent to 25° C./2 years)

[2] = Change of pH value of the aqueous solution during storage; details: aqueous solution adjusted to pH 6 to 7
[3] = Stability test at 60° C., effect of pH value with addition of ascorbic acid (Example 2), HPLC content
Experimental: For the aqueous preparations obtained in (1) to (3) above, tests evaluating stability at 60° C./3 weeks were performed. The calcium levofolinate content remaining in the aqueous solution was measured using high performance liquid chromatography under the following conditions (the same were employed in the following experiments) 2 ml each of the test preparations were weighed, and 10 ml of the internal standard solution described below (the same was employed in the following experiments) were added thereto. Subsequently, water was added to adjust the total volume of the solution to 50 ml, thereby to prepare a test solution. Meanwhile, 62.5 mg of calcium levofolinate were dissolved in water so as to prepare a 25 ml solution. Then, to 10 ml of the resultant solution were added 10 ml of the internal standard solution, and the total volume of the solution was adjusted to 50 ml by adding water, thereby to prepare a standard solution. For 20 μl of the standard solution and the test solution, the content of calcium levofolinate was measured by the liquid chromatography method under the following conditions.
1) Measurement Conditions • Detector: Ultraviolet absorptiometer (Measurement wavelength: 254 nm) • Column: A stainless tube having an internal diameter of 4.0 mm and a length of 15 cm was filled with 5 μm of octadecylsilylated silica gel for liquid chromatography. • Column temperature: A constant temperature near 45° C. • Mobile phase: The pH value of a mixed test solution containing 0.008 mol/L of disodium hydrogen phosphate solution/methanol/40% aqueous tetrabutylammonium hydroxide solution (385:110:1.3 (volume ratio)) was adjusted to 7.5 by adding phosphoric acid. • Flow rate: The flow rate was regulated so that the retention time of calcium levofolinate became about 10 minutes. • Internal standard solution: A solution prepared by adding water to 0.04 g of methyl parahydroxybenzoate so that the whole amount of solution is 100 ml.
About 80 ml of water for injection were added to a beaker (volume: 200 ml). Then 0.56 g of sodium chloride, 0.3 g of tromethamine, and 0.5 g of ascorbic acid were added to it with bubbling of nitrogen gas, and the components were dissolved with stirring. Subsequently, to the resultant solution were added 1.375 g of calcium levofolinate (1.1 g, in terms of 5-formyl-(6S)-tetrahydrofolic acid), and the components were dissolved with stirring under heating to 45 to 50° C. Thereafter, the pH value of the solution was adjusted to 5.0 by adding 5% hydrochloric acid solution dropwise. A similar procedure to the above, except using 1% aqueous sodium hydroxide solution in place of 5% hydrochloric acid solution, was performed to produce solutions, each having a regulated pH value of 6.0, 7.0, 8.0, or 9.0. Water for injection was further added to each solution to adjust the total volume of the solution to 100 ml. Subsequently, the bubbling of nitrogen gas was stopped, and each solution was filtered with a filtration filter, thereby to yield a solution for injection. Subsequently, each of five 5 ml-glass ampules the inside space of which had been substituted by nitrogen gas, was filled with 5 ml of the resultant solution for injection, and was sealed by heating.
For each aqueous preparation obtained as above, a stability test at 60° C. was performed by measuring the remaining calcium levofolinate content by the high performance liquid chromatography method.

Nc1nc(=O)c2c([nH]1)NC[C@H](CNc1ccc(C(=O)N[C@@H](CCC(=O)O)C(=O)O)cc1)N2C=O [calcium levofolinate, (6S)-N-[4-[[(2-amino-5-formyl-1,4,5,6,7,8-hexahydro-4-oxo-6-pteridinyl)methyl]amino]benzoyl]-L-glutamic acid]
content of calcium levofolinate during storage [1]: ≥ 90% | change of pH value of the aqueous solution during storage [2]: gradually changes to an acid region | remaining calcium levofolinate content compared with the initial value (100) ([3]; pH value 5.0, 60° C., 1 week): 91.5 | remaining calcium levofolinate content compared with the initial value (100) ([3]; pH value 5.0, 60° C., 2 weeks): 87.5 | remaining calcium levofolinate content compared with the initial value (100) ([3]; pH value 5.0, 60° C., 3 weeks): 86.0 | calcium levofolinate content, Initial value (100) ([3]; pH value 5.0, Initial value): 100 | remaining calcium levofolinate content compared with the initial value (100) ([3]; pH value 6.0, 60° C., 1 week): 95.8 | remaining calcium levofolinate content compared with the initial value (100) ([3]; pH value 6.0, 60° C., 2 weeks): 94.1 | remaining calcium levofolinate content compared with the initial value (100) ([3]; pH value 6.0, 60° C., 3 weeks): 92.8 | calcium levofolinate content, Initial value (100) ([3]; pH value 6.0, Initial value): 100 | remaining calcium levofolinate content compared with the initial value (100) ([3]; pH value 7.0, 60° C., 1 week): 96.3 | remaining calcium levofolinate content compared with the initial value (100) ([3]; pH value 7.0, 60° C., 2 weeks): 93.4 | remaining calcium levofolinate content compared with the initial value (100) ([3]; pH value 7.0, 60° C., 3 weeks): 92.5 | calcium levofolinate content, Initial value (100) ([3]; pH value 7.0, Initial value): 100 | remaining calcium levofolinate content compared with the initial value (100) ([3]; pH value 8.0, 60° C., 1 week): 94.4 | remaining calcium levofolinate content compared with the initial value (100) ([3]; pH value 8.0, 60° C., 2 weeks): 89.2 | remaining calcium levofolinate content compared with the initial value (100) ([3]; pH value 8.0, 60° C., 3 weeks): 87.0 | calcium levofolinate content, Initial value (100) ([3]; pH value 8.0, Initial value): 100 | remaining calcium levofolinate content compared with the initial value (100) ([3]; pH value 9.0, 60° C., 1 week): 95.7 | remaining calcium levofolinate content compared with the initial value (100) ([3]; pH value 9.0, 60° C., 2 weeks): 89.7 | remaining calcium levofolinate content compared with the initial value (100) ([3]; pH value 9.0, 60° C., 3 weeks): 85.3 | calcium levofolinate content, Initial value (100) ([3]; pH value 9.0, Initial value): 100

Source: patent publication US20060058312A1, “Stabilized aqueous preparation for injection” (priority 2004, published 2006)
